Counter-ions that a name gives are not always drawn.
Columns and labels:
[1] = system: mouse pain model; experiment: Pharmacodynamic test on mouse pain model (acetic acid-induced writhing); format: in vivo, Male Kunming mice; details: dose 50mg/kg; writhing within 15 minutes after 1% acetic acid intraperitoneally
[2] = system: EL-4 lymphoma; details: single time
Method: Subcutaneous inoculation of EL-4 cell suspension to replicate a mouse lymphoma model: The EL-4 tumor tissue was ground into a suspension using a glass homogenizer, the tumor suspension was aspirated with a syringe, the number of live cells was calculated, the cell concentration was adjusted to 2.0*10^6/ml with physiological saline, and then the suspension was injected into the left armpit of mice with 0.2 ml/mouse. […] On the day of treatment, weight was measured, 20µl of blood was obtained from the orbital blood and the routine blood analysis was performed.
The data from the groups were compared with each other by T.TEST, and P<0.05 was considered as a significant difference.

[3] = 100 mg/kg intraperitoneal, blood routine test, P<0.05

**Q.** How did the Number of writhing [1] turn out when COc1cccc(C2(O)CCCCC2CN(C)C)c1 (stereo not drawn) [Tramadol Hydrochloride] was run?
**A.** 0.375±0.74

**Q.** Which results are given for O=P1(N(CCCl)CCCl)NCCCO1 (stereo not drawn) [cyclophosphamide, Cyclophosphamide]?
**A.** leukocytes [2, 3]: significantly reduced; lymphocytes [2, 3]: significantly reduced; monocytes [2, 3]: significantly reduced; neutrophils [2, 3]: significantly reduced; Tumor weight ([2]; dose 0.1 g/kg, intraperitoneal): 0.12 ± 0.03 g

Source: patent EP4600258A1, “KERATIN YK93-6, PREPARATION METHOD THEREFOR, PHARMACEUTICAL COMPOSITION THEREOF, AND USE THEREOF” (INSTITUTE OF MATERIA MEDICA, CHINESE ACADEMY OF MEDICAL …, priority 2022, dated 2024)
